# According to US20240368163A1, “COMPOUNDS AND METHODS FOR MODULATING SPLICING” (REMIX THERAPEUTICS INC., priority 2021, published 2024):
# Where two headings read alike, the source gives them in different places.
# Experiments:
# Format in all cases: cell-based, human
# [1] = system: MYB; experiment: Splicing RT-qPCR assay, MYB mRNA canonical junction (CJ) and alternative junction (AJ); details: Homo sapiens; for AC50: increase in AJ mRNA
# Protocol: (§1) Compounds described herein were used to modulate RNA transcript abundance in cells. The expression of a target mRNA was measured by detecting the formation of an exon-exon junction in the canonical transcript (CJ). A compound mediated exon-inclusion event was detected by observing an increase in formation of a new junction with an alternative exon (AJ). Real-time qPCR assays were used to detect these splicing switches and interrogate the potency of various compounds towards different target genes. A high-throughput real time quantitative PCR (RT-qPCR) assay was developed to measure these two isoforms of the mRNA (CJ and AJ) for exemplary genes, such as HTT, SMN2, and MYB, together with a control housekeeping gene, GAPDH or GUSB or PPIA, used for normalization. Briefly, the A673 or K562 cell line was treated with various compounds described herein (e.g., compounds of Formula (I)). After treatment, the levels of the HTT, MYB, or SMN2 mRNA targets were determined from each sample of cell lysate by cDNA synthesis followed by qPCR.
# (§2) The A673 cell line was cultured in DMEM with 10% FBS. Cells were diluted with full growth media and plated in a 96-well plate (15,000 cells in 100 ul media per well). The plate was incubated at 37° C. with 5% CO2 for 24 hours to allow cells to adhere. An 11-point 3-fold serial dilution of the compounds was made in DMSO then diluted in media in an intermediate plate. Compounds were transferred from the intermediate plate to the cell plate with the top dose at a final concentration of 10 uM in the well. Final DMSO concentration was kept at or below 0.25%. The cell plate was returned to the incubator at 37° C. with 5% CO2 for an additional 24 hours.
# (§3) The K562 cell line was cultured in IMDM with 10% FBS. For K562, cells were diluted with full growth media and plated in either a 96-well plate (50,000 cells in 50 uL media per well) or a 384-well plate (8,000-40,000 cells in 45 uL media per well). An 11-point 3-fold serial dilution of the compounds were made in DMSO then diluted in media in an intermediate plate. Compound was transferred from the intermediate plate to the cell plate with the top dose at a final concentration of 10 uM in the well. Final DMSO concentration was kept at or below 0.25%. Final volume was 100 uL for 96-well plate and 50 uL for 384-well plate. The cell plate was then placed in an incubator at 37° C. with 5% CO2 for 24 hours.
# (§4) The cells were then gently washed with 50 uL-100 uL cold PBS before proceeding to addition of lysis buffer. 30 uL-50 μL of room temperature lysis buffer with DNAse I (and optionally RNAsin) was added to each well. Cells were shaken/mixed thoroughly at room temperature for 5-10 minutes for lysis to take place and then 3 uL-5 μL of room temperature stop solution was added and wells were shaken/mixed again. After 2-5 minutes, the cell lysate plate was transferred to ice for RT-qPCR reaction setup. The lysates could also be frozen at −80° C. for later use.
# (§5) In some cases, a direct lysis buffer was used. An appropriate volume of 3× lysis buffer (10 mM Tris, 150 mM NaCl, 1.5%-2.5% Igepal and 0.1-1 U/uL RNAsin, pH 7.4) was directly added to either K562 or A673 cells in media and mixed by pipetting 3 times. The plates were then incubated at room temperature with shaking/rocking for 20-50 minutes to allow for lysis to take place. After this time, the cell lysate plate was transferred to ice to set up for the RT-qPCR reactions. The lysates could also be frozen at −80° C. for later use.
# (§6) To set up 10 uL RT-qPCR reactions, cell lysates were transferred to 384-well qPCR plates containing the master mix according to the table below. The plates were sealed, gently vortexed, and spun down before the run. The volumes were adjusted accordingly in some instances where the reaction was carried in 20 μL. The table below summarizes the components of the RT-qPCR reactions:
# (§7) The RT-qPCR reaction was performed using a QuantStudio (ThermoFisher) under the following fast cycling conditions. […]
# [2] = system: HTT; experiment: Splicing RT-qPCR assay, HTT mRNA canonical junction (CJ) and alternative junction (AJ); details: Homo sapiens; for AC50: increase in AJ mRNA
# Protocol: as §1, §2, §3, §4, §5, §6, §7
# [3] = system: SMN2; experiment: Splicing RT-qPCR panel, SMN2 canonical junction (CJ) mRNA; details: Homo sapiens, read-out: SMN2 IC50 (decrease in CJ mRNA levels)
# Protocol: as §1, §2, §3, §4, §5, §6, §7
# [4] = system: Target C; experiment: Splicing RT-qPCR panel, Target C canonical junction (CJ) mRNA; details: Homo sapiens, read-out: Target C IC50 (decrease in CJ mRNA levels)
# Protocol: as §1, §2, §3, §4, §5, §6, §7
# [5] = system: MYB; experiment: HiBiT protein abundance assay, MYB; details: Homo sapiens, K562, 24 h, Table 13B, modified K562 cells
# Protocol: (§8) Compounds described herein were used to screen for effects on quantitative protein abundance using a HiBit assay system (Promega). Quantitative protein abundance was determined by measuring the protein levels of HiBit-tagged protein targets expressed in cell culture via luminescence using the Nano-Glo HiBiT Lytic Detection System, which uses a split complementation assay format to reconstitute NanoBiT enzyme to generate a luminescent signal. A protein abundance assay was developed such that endogenous protein targets could be modified with the HiBiT peptide tag and their abundance could be assessed after compound treatment. Briefly, K562 cell lines containing a HiBiT-modification were treated with various compounds described herein (e.g., compounds of Formulas (I), (II), or (III)). After treatment for 24 hours, the protein abundance of a specific target was determined by measuring luminescence.
# (§9) Cells were maintained in IMIDM with 10% FBS. Before the assay, cells were diluted with […] growth media (IMIDM+[…] media) and were seeded in a 384-well plate at a density of 10000 cells/well (for each cell line listed in Table 12). Each compound was prepared as a 10-point 3-fold serial dilution in DMSO with the top dose at a final concentration of 10 μM in the well. Unmodified K562 cells were added at the previously specified density with DMSO to serve as an assay baseline and positive control (PC) and DMSO only with the respective modified cell lines was added to the negative control (NC) columns. Final DMSO concentration was kept at or below 0.25%. Treated cell plates were placed in an incubator at 37° C. with 5% CO2 for 24 hours. After 24 hours, 25 μL of Complete HiBit Lytic reagent was added to each well at room temperature (e.g. one plate requiring 10 mL Lytic Buffer, 100 μL LgBiT Protein, 200 μL Lytic Substrate), shaken for 5 minutes at 600 RPM, then left to sit for 10 minutes for signal to stabilize before reading on a Spark Cyto plate reader (Tecan) with a 500 ms measurement time.
# (§10) To determine compound effects on protein abundance of each target in Table 12, the percent response for each respective cell line was calculated at each compound concentration as follows:
# (§11) For the normalized response at each concentration, a four-parameter logistical regression was fit to the data and the response was interpolated at the 50% value to determine a concentration for protein abundance at 50% (IC50) the untreated control.
# [6] = system: HTT; experiment: HiBiT protein abundance assay, HTT; details: Homo sapiens, K562, 24 h, Table 13B, modified K562 cells
# Protocol: as §8, §9, §10, §11
# [7] = system: Target C; experiment: HiBiT protein abundance assay, Target C; details: Homo sapiens, K562, 24 h, Table 13B, modified K562 cells
# Protocol: • Promega Nano-Glo HiBiT Lytic Detection System (cat #N3030) • Coming 384-well TC-treated microplates (cat #3570) • Synthego Engineered Cells Knock-In Clones
# as §9, §10, §11
# [8] = 24 h, decrease in CJ mRNA, A673 or K562 cells, 24 hours treatment, RT-qPCR, read-out: MYB CJ IC50
# [9] = 24 h, A673 or K562 cells, 24 hours treatment, RT-qPCR
# [10] = RT-qPCR panel, canonical junction mRNA, compound concentration having 50% response in CJ decrease, read-out: MYB IC50 (decrease in CJ mRNA levels)
# [11] = RT-qPCR panel, canonical junction mRNA, compound concentration having 50% response in CJ decrease, read-out: HTT IC50 (decrease in CJ mRNA levels)
# [12] = RT-qPCR panel, canonical junction mRNA, compound concentration having 50% response in CJ decrease
# [13] = gene panel, CJ qPCR, protocol of Example 142, read-out: MYB IC50 (decrease in CJ mRNA levels)
# [14] = gene panel, CJ qPCR, protocol of Example 142
SMILES,"IC50 [1, 8]","AC50 [1, 9]","IC50 [1, 10]","IC50 ([2]; 24 h, decrease in CJ mRNA, A673 or K562 cells, 24 hours treatment, RT-qPCR, read-out: HTT CJ IC50)","AC50 [2, 9]","IC50 [2, 11]","IC50 [3, 12]","IC50 [4, 12]",IC50 [5],"IC50 [1, 13]",IC50 [6],IC50 [7],"IC50 [4, 14]","IC50 ([2]; gene panel, CJ qPCR, protocol of Example 142, read-out: HTT IC50 (decrease in CJ mRNA levels))","IC50 [3, 14]"
CN(c1ccc(-c2ccc(-n3cccn3)c3cn[nH]c23)nn1)C1CC(C)(C)NC(C)(C)C1 [Compound 150],100 to 1000 nM,100 to 1000 nM,100 to 1000 nM,100 to 1000 nM,1000 to 10000 nM,100 to 1000 nM,100 to 1000 nM,,,,,,,,
CN(c1cnc(-c2cc(F)c(-c3cnn(C)c3)c3cn[nH]c23)nn1)[C@@H]1C[C@H]2CC[C@@H](C1)N2 [Compound 290],1000 to 10000 nM,100 to 1000 nM,1000 to 10000 nM,,< 100 nM,< 100 nM,100 to 1000 nM,100 to 1000 nM,,,,,,,
c1cnn(-c2ccc(-c3ccc(O[C@@H]4C[C@H]5CC[C@@H](C4)N5)nn3)c3cn[nH]c23)c1 [Compound 308],< 100 nM,< 100 nM,< 100 nM,,< 100 nM,< 100 nM,< 100 nM,< 100 nM,,,,,,,
CN(c1ccc(-c2ccc(-n3cccn3)c3[nH]ncc23)nn1)[C@@H]1C[C@H]2CC[C@@H](C1)N2 [Compound 409],100 to 1000 nM,100 to 1000 nM,100 to 1000 nM,,< 100 nM,< 100 nM,< 100 nM,< 100 nM,,,,,,,
C[C@@H]1C[C@H](N(C)c2ccc(-c3ccc(-c4cn[nH]c4)c(=O)[nH]3)nn2)CCN1 [Compound 901],,,,,,,,,> 10000 nM,> 10000 nM,> 10000 nM,> 10000 nM,,,
C[C@H]1C[C@@H](N(C)c2ccc(-c3ccc(-n4cccn4)c(=O)[nH]3)nn2)CCN1 [Compound 903],,,,,,,,,> 10000 nM,> 10000 nM,> 10000 nM,> 10000 nM,> 10000 nM,,
COc1nc(-c2ccc(N(C)[C@@H]3CCN[C@H](C)C3)nn2)ccc1-c1cn[nH]c1 [Compound 909],,,,,,,,,1000 to 10000 nM,1000 to 10000 nM,1000 to 10000 nM,1000 to 10000 nM,,1000 to 10000 nM,100 to 1000 nM
